pEC50: −log10 of the molar value.

One may read the pEC50 as the negative decadic logarithm of the EC50, by convention in mol/L. A higher pEC50 goes with a small EC50.

Sequence of STING (Q86WV6 whole entry R71H/G230A/H232R/R293Q): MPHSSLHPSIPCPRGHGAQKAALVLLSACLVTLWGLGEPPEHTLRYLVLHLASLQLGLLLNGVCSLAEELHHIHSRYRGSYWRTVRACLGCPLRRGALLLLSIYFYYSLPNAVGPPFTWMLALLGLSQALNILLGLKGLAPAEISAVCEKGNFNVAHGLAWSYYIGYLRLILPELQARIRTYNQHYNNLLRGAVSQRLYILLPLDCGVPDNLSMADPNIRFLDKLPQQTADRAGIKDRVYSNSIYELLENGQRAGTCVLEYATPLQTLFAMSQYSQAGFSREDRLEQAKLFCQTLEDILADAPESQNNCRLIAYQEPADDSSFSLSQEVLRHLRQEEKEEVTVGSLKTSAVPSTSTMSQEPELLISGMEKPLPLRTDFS

The target in the first experiment is STING (Homo sapiens, UniProt Q86WV6, G230A/H232R/R293Q/R71H). Briefly: STING reporter assay: THP1-Dual KO-IFNAR2 cells stimulated with 2′3′cGAMP, luciferase reporter activity. It is filed as cell-based. Conditions: 15 μM 2′3′cGAMP, 24h, class symbols. An outline of the steps:
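THP1-Dual KO-IFNAR2 cells (2×10E6 cells/mL) treated with compounds at 0.0017-100 μM, then stimulated with 2′3′cGAMP (15 μM final) delivered by Lipofectamine 2000; 24 h at 37° C. Supernatant luciferase read by QUANTI-Luc Plus luminescence; EC50 from dose-response.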
Background: In a reporter assay the amount or activity of a reporter protein is the signal.
Consider `CC(C)CCNC(=O)Nc1ccc2cc[nH]c2c1` [Compound 215], for which the negative logarithm of the EC50 (pEC50) is 5.30 to 6.00.
The compound `Cc1cc2cc[nH]c2cc1NC(=O)Nc1ccc(C(F)(F)F)cc1` [Compound 265] had a pEC50 of 4.00 to 5.30.
In the case of `Cn1ccc2ccc(Nc3ccc4ccc(C(F)(F)F)cc4n3)cc21` [Compound 608, N-(1-methyl-1H-indol-6-yl)-7-(trifluoromethyl)quinolin-2-amine], the negative logarithm of the EC50 (pEC50) is 4.00 to 5.30.
`CC(Cc1cccc(C(F)(F)F)c1)NC(=O)Nc1ccc2cc[nH]c2c1` (centres unmarked) [Compound 172] had a pEC50 of 5.30 to 6.00.
`CC(C)c1ccc(-c2nnc(NC(=O)Nc3ccc4[nH]ccc4c3)s2)cc1` [Compound 279] gave a pEC50 of 4.00 to 5.30.
On the same count and under the same terms, under `Fc1cc(C(F)(F)F)cc2nc(Nc3ccc4cc[nH]c4c3)ccc12` [Compound 554] stands 5.30 to 6.00.
The same measure, in the same setting: under `FC(F)(F)c1cc(Cl)c2ccc(Nc3ccc4cc[nH]c4c3)nc2c1` [Compound 564] stands 6.00 to 6.70; under `O=S(=O)(c1ccc(Nc2ccc3cc[nH]c3c2)nc1)N1CCCCC1` [Compound 422, N-(5-(piperidin-1-ylsulfonyl)pyridin-2-yl)-1H-indol-6-amine], 4.00 to 5.30.
Same read-out and setting: the figure for `N#Cc1cc(Nc2ccc3ccc(C(F)(F)F)cc3n2)cc2[nH]ccc12` [Compound 384] is 5.30 to 6.00; for `CNC(=O)c1cc(NC(=O)Nc2ccc(C(F)(F)F)cc2)cc2[nH]ccc12` [Compound 543] it is 4.00 to 5.30.
As to `O=C(Nc1ccc(C(F)(F)F)cc1)Nc1ccc2cc[nH]c2c1` [Compound 101], the pEC50 is 6.70 to 7.40.
Compound `FC(F)(F)Cc1ccc(Nc2ccc3cc[nH]c3c2)nc1` [Compound 408, N-(5-(2,2,2-trifluoroethyl)pyridin-2-yl)-1H-indol-6-amine] showed a pEC50 of 4.00 to 5.30.
Turning to `CNC(=O)OCCc1cc(NC(=O)Nc2ccc(C(F)(F)F)cc2)cc2[nH]ccc12` [Compound 512], the pEC50 was 5.30 to 6.00.
`O=C(Nc1ccc(S(=O)(=O)C(F)(F)F)cc1)Nc1ccc2[nH]ccc2c1` [Compound 289] had a pEC50 of 4.00 to 5.30.
The compound `COCCc1cc(NC(=O)Nc2ccc(C(F)(F)F)cc2)cc2[nH]ccc12` [Compound 505] had a pEC50 of 5.30 to 6.00.
`O=C(Nc1ccc2cc[nH]c2c1)Nc1ccc2cc[nH]c2c1` [Compound 170] gave a negative logarithm of the EC50 (pEC50) of 5.30 to 6.00.
As for `CC(NC(=O)Nc1cnc2cc[nH]c2c1)c1cc(Cl)cc(C(F)(F)F)c1` (centres unmarked) [Compound 506], the pEC50 was 4.00 to 5.30.
`Cc1cc(NC(=O)Nc2ccc3cc[nH]c3c2)ccc1C#N` [Compound 227] gave a pEC50 of 6.00 to 6.70.

Still in this experiment, the particulars now being: 15 μM 2′3′cGAMP, 24h, numeric bounds.
The compound `CCc1ccnc(Nc2ccc3cc[nH]c3c2)c1` [Compound 392, N-(4-ethylpyridin-2-yl)-1H-indol-6-amine] showed a pEC50 of less than 4.52.
`CC(C)(C)OC(=O)N1CC(CCNC(=O)Nc2ccc3[nH]ccc3c2)C1` [Compound 316] had a pEC50 of less than 4.52.
Regarding `O=C(NCC1(c2cccc(Cl)c2)CCOCC1)Nc1ccc2[nH]ccc2c1` [Compound 274], the pEC50 was less than 4.52.
In turn, `CC1(CNC(=O)Nc2ccc3[nH]ccc3c2)CCC(F)(F)CC1` [Compound 311] had a pEC50 of less than 4.52.
`O=C(NCC1CCC1)Nc1ccc2cc[nH]c2c1` [Compound 216] gave a pEC50 of less than 4.52.
`c1cc(Nc2ccc3cc[nH]c3c2)nc(C2CC2)c1` [Compound 433, N-(6-cyclopropylpyridin-2-yl)-1H-indol-6-amine]: the pEC50 was less than 4.52.
The same measure, in the same setting: under `O=C(Nc1ccc2cc[nH]c2c1)Nc1ccon1` [Compound 190] stands less than 4.52; under `O=C(NCCc1ccccc1)Nc1ccc2[nH]ccc2c1` [Compound 327], less than 4.52.
In turn, `N#Cc1cc(F)cc(NC(=O)Nc2ccc3[nH]ccc3c2)c1` [Compound 307] gave a pEC50 of less than 4.52.
`O=C(NCC1CCC1)Nc1ccc2[nH]ccc2c1` [Compound 331] showed a pEC50 of less than 4.52.
Same read-out and setting: under `CC1(C)Oc2ccc(Nc3ccc4cc[nH]c4c3)nc2NC1=O` [Compound 585, 6-[(1H-indol-6-yl)amino]-2,2-dimethyl-2H,3H,4H-pyrido[3,2-b][1,4]oxazin-3-one] stands less than 4.52.
